Measured values reported in US4342700A, “Oxidation-reduction reagents for a wet desulfurization process and a process for preparing same” (Mitsui Toatsu Chemicals, Inc., priority 1978, dated 1982).

What was measured:
[1] = Solubility (g/l, 25° C.) in alkaline inorganic salt solutions and water; conditions: for Solubility: 25° C.
[2] = Time required for oxidation by air to regenerate the quinone form; assay type: physicochemical; conditions: 38° C., leucoanthraquinonesulfonate 0.04 mol/l, NaOH 0.08 mol/l
Protocol: (§1) Easiness in oxidation-reduction of these compounds is evaluated by their standard oxidation-reduction potential and their oxidation and reduction rates.
**Air was absorbed at 38° C. in an aqueous solution containing a
given leucoanthraquinonesulfonate (0.04 mol/l) and sodium hydroxide (0.08
mol/l) under agitation whereby the time required for finishing the
airabsorption was measured.

[3] = Standard oxidation-reduction potential Eo; assay type: physicochemical; conditions: for Standard oxidation-reduction potential Eo: 25° C.; for oxidation-reduction characteristics compared with anthraquinone-2,7-disulfonate (in words): from Table 2 (reaction rates and Eo)
Protocol: as §1

[4] = Test for absorbing hydrogen sulfide according to the Stretford process (wet desulfurization)
Source text: In view of the solubility and oxidation-reduction characteristics above described, the anthraquinone compounds of the general formulas (I) and (II) are expected to exert an equivalent performance to anthraquinone-2,7-disulfonate as an oxidation-reduction reagent used for the Stretford process. […] The results of the test are given in Examples 11-17. The compounds of the general formulas (I) and (II) exerted in the Stretford process an equivalent desulfurization performance to anthraquinone-2,7-disulfonates. In other words, these anthraquinone compounds are quite equivalent to or somewhat better than anthraquinone-2,7-disulfonate in elimination rate of hydrogen sulfide (desulfurization ratio), a conversion rate of the absorbed hydrogen sulfide to elemental sulfur and a concentration of the residual hydrogen sulfide in the refined gas.
(§2) An absorption column was prepared by charging a glass tube (with a jacket) of 10 cm in inner diameter and 100 cm in length with a basket type filler of polypropylene (Tellerette S available from Nittetsu Kakoki KK, Japan) with a diameter of 1 cm up to a height of 95 cm. A hydrogen sulfide-containing gas prepared by mixing a gas composed of 6% carbon dioxide and 94% nitrogen with hydrogen sulfide in an amount of 5 g/Nm^2 was introduced at a flow rate of 230 l/hr. into the absorption column from the bottom thereof. On the other hand, an alkaline aqueous solution containing 0.03 mol/l of sodium metavanadate and 0.005 mol/l of sodium 2-carboxyanthraquinonemonosulfonate, which had been adjusted to have a pH value of 9 by addition of sodium carbonate and was kept at 40° C. was sprayed at a rate of 4.6 l/hr. into the absorption column from the top thereof whereby the hydrogen sulfide-containing gas was brought in the column into contact with the alkaline aqueous solution.
A gas/liquid ratio in this case was 0.02. From the lower part of the absorption column, the liquid was discharged and conveyed into a regeneration column made of a glass tube (with a jacket) of 10 cm in inner diameter and 100 cm in length where elementary sulfur was completely precipitated from the liquid by blowing air thereinto. A residence time of the liquid in the regeneration column was 20 minutes.
as §2, with “lenght” for “length”, “S)” for “S available from Nittetsu Kakoki KK, Japan)”, “g/Nm^3” for “g/Nm^2”, “2-phenoxyanthraquinonetrisulfonate,” for “2-carboxyanthraquinonemonosulfonate,”, “solution. A gas/liquid ratio in this case was 0.02. From the lower part of the absorption column, the liquid was discharged and conveyed into a regeneration column made of a glass tube (with a jacket) of 10 cm in inner diameter and 100 cm in length where elementary sulfur was completely precipitated from the liquid by blowing air thereinto. A residence time of the liquid in the regeneration column was 20 minutes.” for “solution.”
An absorption column was prepared by charging a glass tube (with a jacket) of 10 cm in inner diameter and 100 cm in length with a basket type filler of polypropylene (Tellerett S) with a diameter of 1 cm up to a height of 95 cm. […]

[5] = Time required for being reduced to the leuco form by sodium vanadite; assay type: physicochemical; conditions: 38° C., nitrogen, sodium vanadite 0.02 mol/l, anthraquinonesulfonate 0.04 mol/l, NaOH 0.04 mol/l
Protocol: as §1

[6] = basic aqueous solution used in the Stretford process; background statement; cited from earlier work
[7] = pH of solution in pure water; assay type: physicochemical
[8] = 20g Na2 CO3 + 300g Na2 S2 O3 in 1 liter of water
[9] = 20g Na2 CO3 + 300g NaSCN in 1 liter of water
[10] = Mixed aqueous solution: 20 g/l sodium carbonate, 50 g/l sodium sulfate, 100 g/l sodium thiosulfate, 150 g/l sodium thiocyanate
[11] = Examples 13-15: 0.005 mol/l reagent, 0.03 mol/l sodium metavanadate, pH 9, 40° C., H2S gas 5 g/Nm^3, 230 l/hr
[12] = Examples 11-12: 0.005 mol/l reagent, 0.03 mol/l sodium metavanadate, pH 9, 40° C., H2S gas 230 l/hr, liquid 4.6 l/hr
[13] = Example 17: same manner as described in Example 13 (so in the source)
[14] = practical use, Stretford process

With “Sodium 2-phenoxyanthraquinonetetrasulfonate” the Solubility [1, 8] was > 300 mg/mL, the Solubility [1, 9] was > 200 mg/mL and the Solubility [1, 10] was > 200 mg/mL. The Solubility ([1]; Water) was > 600 mg/mL, the “Time required for oxidation to regenerate the quinone form” value (shortened to “Time required for oxidation”) [2] was 15 min and the “Standard oxidation-reduction potential Eo” value [3] was 0.28 V. The “oxidation-reduction characteristics compared with anthraquinone-2,7-disulfonate (in words)” value (shortened to “oxidation-reduction characteristics”) [3] was “very similar in oxidation-reduction characteristics to sodium anthraquinone-2,7-disulfonate”, the desulfurization ratio [4, 11] was “at least 99.7%” and the “Time required for reduction to the leuco form” value (shortened to “Time required for reduction”) [5] was 5 min.

For `O=C1c2ccc(S(=O)(=O)O)cc2C(=O)c2ccc(S(=O)(=O)O)cc21` [anthraquinone-2,6-disulfonic acid], the “solubility (in words)” value [6] is listed as “very poor solubility”.

In the case of “sodium 2-carboxyanthraquinonemonosulfonate”, the Solubility [1, 8] is reported as 38 mg/mL, the Solubility [1, 9] is reported as 25 mg/mL and the Solubility [1, 10] is reported as 15 mg/mL. The Solubility ([1]; Water) was 12 mg/mL, the “solubility as disodium salt” value ([1]; neutral or weakly alkaline solution, as disodium salt) was ≥ 200 mg/mL and the “pH of the solution” value [7] was 3-4. The “Time required for oxidation” value [2] was 15 min, the “Standard oxidation-reduction potential Eo” value [3] was 0.29 V and the “oxidation-reduction characteristics” value [3] was “very similar in oxidation-reduction characteristics to sodium anthraquinone-2,7-disulfonate”. For the same compound, the “quantity of sulfur recovered, % of hydrogen sulfide contained in the feed gas” value ([4]; Example 11: 0.005 mol/l reagent, 0.03 mol/l sodium metavanadate, pH 9, 40° C.) was 97%, the desulfurization ratio [4, 12] was ≥ 99.7% and the “Time required for reduction” value [5] was 5 min.

With “potassium 2-phenoxyanthraquinonetrisulfonate” the desulfurization ratio [4, 11] was “at least 99.7%”.

In the case of “ammonium 2-carboxyanthraquinonemonosulfonate”, the desulfurization ratio [4, 12] is reported as “at least 99.7%”.

In the case of “potassium 2-phenoxyanthraquinonetetrasulfonate”, the desulfurization ratio [4, 11] is reported as “at least 99.7%”.

With “sodium 2-phenoxyanthraquinonetrisulfonate” the Solubility [1, 8] was > 200 mg/mL, the Solubility [1, 9] was > 100 mg/mL and the Solubility [1, 10] was > 100 mg/mL. The Solubility ([1]; Water) was > 400 mg/mL, the “Time required for oxidation” value [2] was 15 min and the “Standard oxidation-reduction potential Eo” value [3] was 0.27 V. The “oxidation-reduction characteristics” value [3] was “very similar in oxidation-reduction characteristics to sodium anthraquinone-2,7-disulfonate”, the “quantity of sulfur recovered, % of hydrogen sulfide contained in the feed gas” value ([4]; Example 13: 0.005 mol/l reagent, 0.03 mol/l sodium metavanadate, pH 9, 40° C.) was 97% and the desulfurization ratio [4, 13] was “at least 99.7%”. For the same compound, the desulfurization ratio [4, 11] was ≥ 99.7% and the “Time required for reduction” value [5] was 5 min.

`O=C1c2ccc(S(=O)(=O)[O-])cc2C(=O)c2cc(S(=O)(=O)[O-])ccc21.[Na+].[Na+]` [reference compound] showed a Solubility [1, 8] of 10 mg/mL, a Solubility [1, 9] of 8 mg/mL and a Solubility [1, 10] of 5 mg/mL. For the same compound, the Solubility ([1]; Water) was 305 mg/mL, the “Time required for oxidation” value [2] was 15 min and the “Standard oxidation-reduction potential Eo” value [3] was 0.29 V. The desulfurization ratio [4, 12] was 99.6% and the “Time required for reduction” value [5] was 5 min.

With `O=C1c2ccccc2C(=O)c2cc(Oc3ccc(S(=O)(=O)O)cc3S(=O)(=O)O)ccc21` [sodium 2-phenoxyanthraquinone-2',4'-disulfonate, reference compound] the standard oxidation-reduction potential ([3]; temperature not given) was 0.21 V, the “suitability for use in the Stretford process (in words)” value ([4]; Stretford process) was “unsuited for use in the Stretford process” and the “capturing rate for hydrogen sulfide (in words)” value [4, 14] was “inferior”. The “oxidation efficiency of hydrogen sulfide to elemental sulfur (in words)” value [4, 14] was “inferior”.

In the case of “potassium 2-carboxyanthraquinonemonosulfonate”, the desulfurization ratio [4, 12] is reported as “at least 99.7%”.

With “ammonium 2-phenoxyanthraquinonetetrasulfonate” the desulfurization ratio [4, 11] was “at least 99.7%”.

With `O=C1c2ccc(S(=O)(=O)[O-])cc2C(=O)c2ccc(S(=O)(=O)[O-])cc21.[Na+].[Na+]` [reference compound] the Solubility [1, 8] was < 1 mg/mL, the Solubility [1, 9] was < 1 mg/mL and the Solubility [1, 10] was < 1 mg/mL. It also gave a Solubility ([1]; Water) of 39 mg/mL.

For “sodium 2-carboxyanthraquinonetetrasulfonate”, the desulfurization ratio [4, 13] was “at least 99.7%”.
